“And” between values parts separate entries of the source, which are not always exact repeats. Identical values can stand only once.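 Growth conditions: 96-well plates. Treatment: test compound, 48 hours, 5 concentrations. Analysis: linear interpolation between bracketing concentrations; unreached endpoints set to highest concentration. GI50 is the concentration that inhibits growth by half. At the TGI there is no net growth.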
How the values were obtained:
Assay in all cases: NCI anticancer screen, dose series, 48 h
A498 renal = system: A498 renal
NCI-H23 lung = system: NCI-H23 lung
OVCAR-3 ovarian = system: OVCAR-3 ovarian
SNB-19 CNS = system: SNB-19 CNS
OVCAR-8 ovarian = system: OVCAR-8 ovarian
U251 CNS = system: U251 CNS
UACC-257 melanoma = system: UACC-257 melanoma
T-47D breast = system: T-47D breast
SK-MEL-5 melanoma = system: SK-MEL-5 melanoma
LOX IMVI melanoma = system: LOX IMVI melanoma

Row | SMILES | GI50 (A498 renal) [nM] | TGI (A498 renal) [µM] | GI50 (NCI-H23 lung) [nM] | TGI (NCI-H23 lung) | GI50 (OVCAR-3 ovarian) [nM] | GI50 (SNB-19 CNS) [nM] | TGI (SNB-19 CNS) [µM] | GI50 (OVCAR-8 ovarian) [nM] | TGI (OVCAR-8 ovarian) [µM] | GI50 (U251 CNS) [nM] | TGI (U251 CNS) | GI50 (UACC-257 melanoma) [nM] | TGI (UACC-257 melanoma) | GI50 (T-47D breast) [nM] | TGI (T-47D breast) | GI50 (SK-MEL-5 melanoma) [nM] | TGI (SK-MEL-5 melanoma) | GI50 (LOX IMVI melanoma) [nM] | TGI (LOX IMVI melanoma) | TGI (OVCAR-3 ovarian)
1 | Oc1ccc2ccccc2c1N=Nc1ccccn1 | 2390 | 20 | 2820 | > 100000 nM | 266 | 2530 | > 100 | 447 | > 27.4 | 563 | > 100 µM | 2010 | 8.02 µM | 681 | > 28.4 µM | 2750 | 15600 nM | 356 | 12400 nM | 
2 | Clc1ccc2c(NCCNc3ccnc4cc(Cl)ccc34)ccnc2c1 |  | 32.2 |  | 33200 nM |  |  | 50.2 |  | 43.1 |  | 32.1 µM |  | 32.3 µM |  | 43.8 µM |  | 38100 nM |  | 34100 nM | 28.3 µM
3 | CCOC(=O)c1c(C)[nH]c(/C=C2\N=C(c3ccc[nH]3)C=C2OC)c1C | 1870 | 5.7 | 235 | 2030 nM | 15.2 | 735 | > 42.3 | 35.8 | 1.61 | 52 | 1.59 µM | 40.2 | 1.46 µM |  |  | 23.1 | 69.8 nM | < 10 | 16.8 nM | 0.299 µM
4 | COc1cc2cc(C(=O)N3CC(CCl)c4c3cc(N(C)C)c3ccccc43)[nH]c2c(OC)c1OC (stereo not given) |  | 0.0174 |  | 12.7 nM |  |  | 10.6 |  | 0.0206 |  | 4.66 µM |  |  |  |  |  | 24.1 nM |  | 1860 nM | 0.0377 µM
5 | COc1ccc(Cl)cc1NC(=O)c1c(NC(=O)C(F)(F)C(F)(F)F)sc2c1CCCCC2 | 312 | 2.06 | 1540 | 7380 nM |  | 1570 | > 100 | 2020 | > 100 | 1890 | > 100 µM |  |  | 1260 | 5.49 µM | 242 | 585 nM | 2620 | > 100000 nM | 
6 | COc1cccc2c1C(=O)c1c(O)c3c(c(O)c1C2=O)C[C@@](O)(/C(C)=N/NC(=O)c1ccccc1)C[C@@H]3OC1CC(N)C(O)C(C)O1 (stereo not given in full) |  | 3.42 |  | 1540 nM |  |  | 7.86 |  | 5.96 |  | 7.18 µM |  | 3.51 µM |  | 3.44 µM |  | 740 nM |  | 709 nM | 4.55 µM
7 | COC(=O)c1cc2c3c(cc(O)c2[nH]1)N(C(=O)C1Cc2cc(OC)c(OC)c(OC)c2N1)CC3CCl (stereo not given) | < 10 | < 0.01 | < 10 | < 10 nM |  | < 10 | 1.05 | < 10 | 0.014 | < 10 | 0.0109 µM | < 10 | < 0.01 µM | < 10 | < 0.01 µM | < 10 | < 10 nM | < 10 | 291 nM | 
8 | NC(Cc1c[nH]c2ccccc12)C(=O)O (stereo not given) |  | > 13.9 |  | > 300000 nM |  |  | > 300 |  | > 248 |  | > 300 µM |  | > 300 µM |  |  |  | > 300000 nM |  | > 300000 nM | > 300 µM
9 | Nc1nc(N)c2nc(-c3ccco3)cnc2n1 |  | > 100 |  | > 100000 nM |  |  | > 100 |  | > 100 |  | > 100 µM |  | > 100 µM |  |  |  | > 100000 nM |  | > 100000 nM | > 100 µM
10 | O=C1C=C(N2CC2)C(=O)C=C1N1CC1 |  | 0.158 | 14.1 | 132 nM and 289 nM | 153 | 203 | 4.72 |  | 4.31 | 23.3 | 0.284 µM and 1.49 µM | 121 | 0.339 µM and 0.999 µM | 51.6 | 0.582 µM and 2.85 µM | 15.5 | 72 nM and 307 nM | 29.8 | 206 nM and 386 nM | 0.967 µM and 0.277 µM
11 | CC[C@@]1(O)C(=O)OCc2c1cc1n(c2=O)Cc2c-1nc1ccccc1c2/C=N\NC(=O)C(N)Cc1cnc[nH]1 (stereo not given in full) |  | 4.09 |  | 2450 nM |  |  | > 100 |  | 16.1 |  | 5.03 µM |  | > 84.3 µM |  | > 100 µM |  | 1030 nM |  | 3370 nM | > 51.4 µM
12 | COc1ccc(CCCC(=O)O)c(C)c1 |  | 52.6 |  | > 100000 nM |  |  | > 100 |  | > 100 |  | 60.8 µM |  | > 100 µM |  | > 100 µM |  | > 100000 nM |  | > 100000 nM | 97.5 µM

From PubChem BioAssay (NCI)
